Laboratory results reported in publication PMC10479830, “Nucleoside analogs NM107 and AT-527 are antiviral against rubella virus” (PNAS Nexus, 2023).
Where two headings read alike, the source gives them in different places.

Columns and labels:
rubella RA27/3 virus = experiment: microbe, parasite or virus in culture; format: cell-based; conditions: for selectivity index (SI = CC50/IC50): A549 cells; for IC50: Rubella virus
From the text: (§1) We developed a high-throughput, high-content, cell-based assay to monitor rubella virus infection of the human respiratory cell line A549, as the respiratory tract is infected in humans. […] We infected A549 cells with the rubella virus vaccine strain (RA27/3) and monitored infection using an antibody to the viral glycoprotein E1 (Fig. 1A) ([13]). […] To evaluate the utility of nanchangmycin as a positive control for our assay development, we performed a dose–response assay for nanchangmycin using automated fluorescent microscopy to quantify the cell number as a surrogate for cell viability and percent infection (Fig. 1A).
A549 cells were plated in 384 well plates at 3,000 cells/well, HBMEC were plated at 7,000 cells/well, or Jeg-3 cells were plated at 3,000 cells/well in 20 μL growth media. The next day, 50 nL of drugs were added to assay wells, yielding a final concentration of 1 µM. The positive control nanchangmycin (n = 32) and the negative control DMSO (n = 32) were spotted on each assay plate. […] HBMECs were spin-infected by centrifuging at 1,250×g for 1 h at 25°C. Cells were fixed at 48 h post infection (hpi) in 4% formaldehyde/phosphate-buffered saline (PBS) for 15 min at room temperature and then washed twice with PBS. Cells were blocked with blocking buffer [2% bovine serum albumin in PBS with 0.1% Triton X-100 (PBST)]) for 1 h and incubated with primary antibody (mouse antirubella E1, CDC, 1 μg/mL) overnight at 4°C. […] Cells were washed three times with PBST and imaged using ImageXpress Micro (Molecular Devices). Cells were imaged with a 10× objective capturing four sites per well. The total number of cells and the percentage of infected cells were measured using the MetaXpress 5.3.3 cell scoring module. The aggregated percent infection of the DMSO and 2 µM nanchangmycin control wells on each assay plate were used to calculate Z′-factors. Sample well infection was normalized to aggregated DMSO plate control wells and expressed as percentage of control (POC = [%Infection sample/Average %Infection DMSO] × 100) and Z-score (Z = [%Infection sample − Average %Infection DMSO]/Standard Deviation %Infection DMSO) in Spotfire (PerkinElmer). Candidate hits were selected as compounds with POC <40% and viability >60%, compared with vehicle control.
(§2) Drugs were purchased as powders from Selleckchem, MedchemExpress, and MedKoo and suspended in DMSO. Drugs were arrayed in 8-pt dose–response in 384 well plates. Infections were performed using the screening conditions. DMSO (n = 32) and 2 µM nanchangmycin (n = 16) were included on each validation plate as controls for normalization. Infection at each drug concentration was normalized to aggregated DMSO plate control wells and expressed as POC (POC = %Infection sample/Average %Infection DMSO cont). A nonlinear regression curve fit analysis (GraphPad Prism 8) was performed on POC infection and cell viability using log10 transformed concentration values to calculate IC50 values for infection and CC50 values for cell viability. SI was calculated as a ratio of the drug's CC50 and IC50 values (SI = CC50/IC50).

rubella virus [1] = experiment: rubella virus infection of Jeg-3 cells, dose-response; format: cell-based; conditions: Rubella virus
Protocol: Since rubella can cause congenital infections, we next developed assays in the human trophoblast cell line Jeg-3.
(§3) A549 cells were plated in 384 well plates at 3,000 cells/well, HBMEC were plated at 7,000 cells/well, or Jeg-3 cells were plated at 3,000 cells/well in 20 μL growth media. The next day, 50 nL of drugs were added to assay wells, yielding a final concentration of 1 µM. The positive control nanchangmycin (n = 32) and the negative control DMSO (n = 32) were spotted on each assay plate. One hour later, cells were infected with rubella virus at a multiplicity of infection (MOI) = 0.234 for A549s, MOI = 0.1 for HBMEC, MOI = 0.05 for Jeg-3 cells). […] HBMECs were spin-infected by centrifuging at 1,250×g for 1 h at 25°C. Cells were fixed at 48 h post infection (hpi) in 4% formaldehyde/phosphate-buffered saline (PBS) for 15 min at room temperature and then washed twice with PBS. Cells were blocked with blocking buffer [2% bovine serum albumin in PBS with 0.1% Triton X-100 (PBST)]) for 1 h and incubated with primary antibody (mouse antirubella E1, CDC, 1 μg/mL) overnight at 4°C. Cells were washed three times with PBST and incubated in secondary (1:1000 antimouse Alexa Fluor 488 and 5 μg/mL Hoechst 33342) for 1 h at room temperature. Cells were washed three times with PBST and imaged using ImageXpress Micro (Molecular Devices). Cells were imaged with a 10× objective capturing four sites per well. The total number of cells and the percentage of infected cells were measured using the MetaXpress 5.3.3 cell scoring module. The aggregated percent infection of the DMSO and 2 µM nanchangmycin control wells on each assay plate were used to calculate Z′-factors. Sample well infection was normalized to aggregated DMSO plate control wells and expressed as percentage of control (POC = [%Infection sample/Average %Infection DMSO] × 100) and Z-score (Z = [%Infection sample − Average %Infection DMSO]/Standard Deviation %Infection DMSO) in Spotfire (PerkinElmer). Candidate hits were selected as compounds with POC <40% and viability >60%, compared with vehicle control.
as §2

rubella virus [2] = experiment: qRT-PCR of viral RNA in infected A549 cells; format: cell-based; conditions: 10 µM, 48 h, vs vehicle
Protocol: (§4) We next performed orthogonal assays to determine the magnitude of the inhibition of rubella infection upon treatment with either NM107 or AT-527. […] We also determined if these nucleoside analogs impacted virus production.
(§5) A549 cells were plated in 6-well plates at 5 × 10^5 cells/well, HBMEC were plated at 6 × 10^5 cells/well, or Jeg-3 cells were plated at 5 × 10^5 cells/well. Twenty-four hours later, vehicle or drugs were added at the indicated concentrations. One hour later, cells were infected with rubella virus (MOI = 0.17 for A549s, MOI = 0.07 for HBMEC, MOI = 0.05 for Jeg-3 cells) and HBMEC were spin-infected by centrifuging at 1,250×g for 1 h at 25°C. […] At 48 hpi, total RNA was purified using Trizol (Invitrogen) followed by the RNA Clean and Concentrate kit (Zymo Research). cDNA synthesis was performed with random hexamers and Moloney murine leukemia virus reverse transcriptase (Invitrogen). Gene-specific primers to rubella RA27/3 NSP and GAPDH were used (Table S4). […] Relative quantities of viral and cellular RNA were calculated using a relative standard curve method where quantification was performed with respect to a 5-point standard curve generated from serial dilutions of a pooled reference generated by combining each sample cDNA for the experiment. […]

rubella virus [3] = experiment: viral titers of A549 supernatants, TCID50 assay; format: cell-based; conditions: A549 cells, 10 µM, 48 hpi, at the limit of detection
Protocol: (§6) A549 or Jeg-3 cells were plated, treated, and infected as for the qRT–PCR experiments. At 4 hpi, cells were washed twice with DPBS (Invitrogen) to remove any nonadsorbed virus and 2 mL of appropriate culture medium treated with vehicle or drug was added. At 48 hpi, cell supernatants were collected and titered by TCID50 assay.
(§7) A549 cells were plated in 96 well plates at 25,000 cells/well and incubated overnight before inoculating with two-fold serial dilutions of viral stock or virus-containing supernatant to determine viral titer. At 24 hpi, plates were processed for microscopy and imaged as above. Titers were calculated using the Reed–Muench method ([26]).

rubella virus [4] = experiment: qRT-PCR of viral RNA in infected Jeg-3 cells; format: cell-based; conditions: 10 μM, 48 h, vs vehicle
Protocol: as §4, §5

rubella virus [5] = experiment: viral titers of Jeg-3 supernatants, TCID50 assay; format: cell-based; conditions: Jeg-3 cells, 10 μM, 48 hpi, below the limit of detection
Protocol: as §6, §7

HCV [6] = test system: HCV; design: method as in PMID 31914458; conditions: cited from earlier work
HCV [7] = test system: HCV; design: method as in PMID 16248033; conditions: reason for discontinuation; cited from earlier work
[8] = cell number (cell viability) in A549 cells, Hoechst 33342, automated microscopy; format: cell-based, human; conditions: human, A549 cells (infected with rubella virus RA27/3); A549 cells, cell number; read-out: half-maximal cytotoxicity concentration (CC50)
From the text: as §1, §3, §2

rubella virus [9] = experiment: rubella virus infection of HBMEC, dose-response; format: cell-based; conditions: Rubella virus
Protocol: Rubella virus can infect diverse tissues in vivo, and viruses can show tissue-specific dependencies on host factors. […] First, we developed assays in human brain microvascular endothelial cells (HBMECs) as a model for endothelial cells. We again used nanchangmycin to optimize the assay (Fig. 3A and B).
as §3, §2

[10] = cell number (cell viability) in HBMEC; format: cell-based; conditions: human, HBMEC (infected with rubella virus)
Protocol: A549 cells were plated in 384 well plates at 3,000 cells/well, HBMEC were plated at 7,000 cells/well, or Jeg-3 cells were plated at 3,000 cells/well in 20 μL growth media. The next day, 50 nL of drugs were added to assay wells, yielding a final concentration of 1 µM. The positive control nanchangmycin (n = 32) and the negative control DMSO (n = 32) were spotted on each assay plate. One hour later, cells were infected with rubella virus at a multiplicity of infection (MOI) = 0.234 for A549s, MOI = 0.1 for HBMEC, MOI = 0.05 for Jeg-3 cells). […] HBMECs were spin-infected by centrifuging at 1,250×g for 1 h at 25°C. […] The total number of cells and the percentage of infected cells were measured using the MetaXpress 5.3.3 cell scoring module. […] Sample well infection was normalized to aggregated DMSO plate control wells and expressed as percentage of control (POC = [%Infection sample/Average %Infection DMSO] × 100) and Z-score (Z = [%Infection sample − Average %Infection DMSO]/Standard Deviation %Infection DMSO) in Spotfire (PerkinElmer). […]
(§8) Drugs were purchased as powders from Selleckchem, MedchemExpress, and MedKoo and suspended in DMSO. […] Infection at each drug concentration was normalized to aggregated DMSO plate control wells and expressed as POC (POC = %Infection sample/Average %Infection DMSO cont). […] SI was calculated as a ratio of the drug's CC50 and IC50 values (SI = CC50/IC50).

[11] = cell number (cell viability) in Jeg-3 cells; format: cell-based, human; conditions: human, Jeg-3 cells (infected with rubella virus)
Protocol: as §3, with “The aggregated percent infection of the DMSO and 2 µM nanchangmycin control wells on each assay plate were used to calculate Z′-factors.” left out, “Candidate hits were selected as compounds with POC <40% and viability >60%, compared with vehicle control.” left out
as §8

[12] = design: method as in PMID 16248033; conditions: cited from earlier work
rubella virus [13] = test system: rubella virus; design: method as in PMID 30680653, PMID 28974385; conditions: case study; cited from earlier work
rubella virus [14] = test system: rubella virus; design: method as in PMID 30680653, PMID 28974385; conditions: cited from earlier work

## CNc1nc(N)nc2c1ncn2[C@@H]1O[C@H](CO[P@@](=O)(N[C@@H](C)C(=O)OC(C)C)Oc2ccccc2)[C@@H](O)[C@@]1(C)F [AT-527]
Rubella RA27/3 virus
  selectivity index (SI = CC50/IC50): > 9
Rubella RA27/3 virus; A549, read-out: half-maximal inhibitory concentration (IC50), rubella virus infection
  IC50: 2250 nM
Rubella virus [1]; JEG-3, read-out: IC50, rubella virus infection
  IC50: 10 nM
Rubella virus [2]
  reduction in viral replication as measured by qRT-PCR: > 100 fold
Rubella virus [3]
  reduction of viral titers: ~100,000 fold
Rubella virus [4]
  reduction in viral RNA by qRT-PCR: > 100 fold
Rubella virus [5]
  reduction of viral titers: ~10,000 fold
HCV [6]; HCV infection
  in vivo activity in a clinical trial: showed in vivo activity
HCV [6]
  tolerability in clinical trial: well tolerated

## CC(C)[C@H](N)C(=O)O[C@@H]1[C@@H](CO)O[C@@H](n2ccc(N)nc2=O)[C@]1(C)O [NM283]
HCV [7]
  toxicity in clinical trials: gastrointestinal toxicity

## C[C@@]1(O)[C@H](O)[C@@H](CO)O[C@H]1n1ccc(N)nc1=O [NM107, 2′-C-methylcytidine]
Rubella RA27/3 virus
  selectivity index (SI = CC50/IC50): > 817
Rubella RA27/3 virus; A549, read-out: IC50, rubella virus infection
  IC50: 20 nM
[8]
  CC50 at 48 h: > 20000 nM
Rubella virus [9]
  IC50: < 10 nM
[10]
  CC50 at 48 h: > 20000 nM
Rubella virus [1]; Jeg-3 cells, read-out: IC50, rubella virus infection
  IC50: 600 nM
[11]
  CC50 at 48 h: > 20000 nM
Rubella virus [2]
  reduction in viral replication as measured by qRT-PCR: > 100 fold
Rubella virus [3]
  reduction of viral titers: ~100,000 fold
Rubella virus [4]
  reduction in viral RNA by qRT-PCR: > 100 fold
Rubella virus [5]
  reduction of viral titers: ~10,000 fold
[12]
  bioavailability: low bioavailability

## CC(=O)Oc1ccccc1C(=O)Nc1ncc([N+](=O)[O-])s1 [nitazoxanide]
Rubella virus [13]
  rubella virus antigen in patient (skin lesions): reduced rubella antigen
Rubella virus [14]
  antiviral activity in cultured cells infected with rubella virus: showed antiviral activity
